Assay results from US9873725B2, “Mimetic peptides which modulate L-type calcium channels” (CONSIGLIO NAZIONALE DELLE RICERCHE, priority 2014, dated 2018).
Where no end group is shown, it is not given here.

Experiments:
[1] = biological target: T1, LTCC (Homo sapiens, UniProt Q08289); experiment: Ca2+ current measurements in tSA-201 cells, serum removal; assay type: cell-based
T1 construct: expressed in transfected cells; host or cells: tSA-201
Source text: (§1) a) Western blotting analysis of Cavα1.2 and GAPDH protein levels of total protein lysates; b) Intracellular Ca^2+fluxes; (c) Molecular modeling and docking of a peptide (SEQ ID NO:2, dark grey) to TID region (SEQ ID NO:10, light grey) of Cavβ2.; (d) Western blotting analysis of Cavα1.2 and GAPDH protein levels of total protein lysates; (e) Confocal analyses of adult cardiomyocytes treated with TAT-MP- and TAT-scramble-and stained with di 8-ANEPPS dye. MP=SEQ ID NO:3, scramble=SEQ ID NO:11. (f) Western blotting analysis of Cavα1.2 and GAPDH protein levels of total protein lysates from HEK293 cells treated with increasing doses of MP; (g) Ca^2+ current measurements in tSA-201 cells previously transfected. For Western blotting analyses, HEK293 or tSA-201 cells transfected or treated as indicated. Protein levels were normalized to GAPDH. (n=4). Data are shown as the means±SEM; *, P<0.05, **, P<0.005; ***, P<0.001.
(§2) To facilitate the intracellular uptake, a cell-penetrating peptide (CPP) was conjugated to the MP (SEQ ID NO: 3). […] Thus, the trans-activating transcriptional activator (TAT) from Human Immunodeficiency Virus 1 (HIV-1) was used. […] TAT-MP=SEQ ID NO: 3; TAT-scramble=scramble=SEQ ID NO:11.

[2] = system: LTCCs; experiment: Confocal analysis of co-localization with LTCCs in isolated adult cardiomyocytes; assay type: cell-based
Source text: as §1, §2

[3] = system: pdk1 knockout mice; experiment: Genetic mouse model of heart failure (inducible cardiac specific PDK1 knockout); assay type: in vivo; conditions: for cardiac (left ventricular) function, echocardiography: PDK1 knockout mice after tamoxifen, cell penetrating peptides
Description: (a, top) Design of study. Echo, echocardiography. (a, bottom) Fractional shortening (%) as determined by echocardiography in pdk1 knockout mice treated with mimetic peptide (TAT-MP) or scramble (TAT-scramble). (b) Western blotting analysis of Cavα1.2 and GAPDH protein levels of total protein lysates from left ventricular homogenates. Protein levels were normalized to GAPDH. (n=4) MP=SEQ ID NO:3, scramble=SEQ ID NO:11. Tamoxifen (TAM) and peptide was injected daily as indicated. Protein levels were normalized to GAPDH.
To explore the in vivo therapeutic potential, MP was used in an inducible and cardiac specific knockout of the phosphoinositide-dependent kinase 1 (PDK1), the upstream activator of all three Akt isoforms. […] We then treated the mice with either cell penetrating MP or scramble peptides and followed the phenotype for the following days. […] MP=SEQ ID NO: 3; TAT-scramble=scramble=SEQ ID NO:11.

[4] = system: Cavα1.2; experiment: Western blot of Cavα1.2 protein degradation in peptide-treated cells, serum removal; assay type: cell-based
Source text: as §1, §2

[5] = system: iPSC-CM beating clusters; experiment: Ca2+ handling in iPSC-CM beating clusters treated with Akt-inhibitor; assay type: cell-based, human; conditions: iPSC-CM beating clusters co-treated with Akt-inhibitor
Source text: (§3) Based on this, we next performed functional analyses and examined the iPSC-CM beating clusters (BCs) for Ca^2+ handling properties. […] On the other hand, no effects were observed when BCs were co-treated with scramble.

[6] = system: Cavα1.2; experiment: Western blot of Cavα1.2 protein levels in iPSC-CMs subjected to an Akt inhibitor; assay type: cell-based, human; conditions: iPSC-CMs co-treated with Akt inhibitor
Source text: (a) Western blotting analysis of Cavα1.2 and GAPDH protein levels of total protein lysates from cardiomyocytes (CMs) differentiated from induced pluripotent stem cells (iPSCs) and previously derived from skin fibroblasts of healthy individuals. (n=4) Cells were untreated or treated with an Akt-inhibitor. MP=SEQ ID NO:3, scramble=SEQ ID NO:11.
as §3

[7] = system: Cavα1.2; experiment: Western blot of Cavα1.2 protein levels in HEK293 cells transfected with peptides, serum removal; assay type: cell-based; conditions: specific mutations within either the MP or Cavα1.2
Source text: as §1
Based on the evidence shown in example 1, we next investigated whether mimetic peptides (MPs) might recapitulate the mechanism by which LTCCs are protected from protein degradation by binding to the TID domain. […]

T1 sequence (Q08289 whole entry): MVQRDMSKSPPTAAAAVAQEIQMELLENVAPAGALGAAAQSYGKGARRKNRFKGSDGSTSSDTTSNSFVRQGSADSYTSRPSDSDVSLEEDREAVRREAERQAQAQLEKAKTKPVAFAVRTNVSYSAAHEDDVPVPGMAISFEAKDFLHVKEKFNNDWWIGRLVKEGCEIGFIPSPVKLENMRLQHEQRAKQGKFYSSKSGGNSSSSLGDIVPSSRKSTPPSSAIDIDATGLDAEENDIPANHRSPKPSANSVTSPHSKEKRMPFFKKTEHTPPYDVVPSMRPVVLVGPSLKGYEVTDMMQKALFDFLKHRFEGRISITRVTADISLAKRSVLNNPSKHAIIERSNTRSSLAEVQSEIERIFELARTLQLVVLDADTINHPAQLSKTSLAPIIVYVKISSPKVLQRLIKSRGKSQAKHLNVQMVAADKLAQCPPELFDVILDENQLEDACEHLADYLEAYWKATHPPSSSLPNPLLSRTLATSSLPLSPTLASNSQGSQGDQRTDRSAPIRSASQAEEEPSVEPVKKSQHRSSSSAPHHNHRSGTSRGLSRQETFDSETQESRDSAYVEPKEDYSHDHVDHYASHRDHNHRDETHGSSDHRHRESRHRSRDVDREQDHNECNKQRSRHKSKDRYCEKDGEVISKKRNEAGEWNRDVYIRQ
T1 sequence (Q13936 whole entry partner): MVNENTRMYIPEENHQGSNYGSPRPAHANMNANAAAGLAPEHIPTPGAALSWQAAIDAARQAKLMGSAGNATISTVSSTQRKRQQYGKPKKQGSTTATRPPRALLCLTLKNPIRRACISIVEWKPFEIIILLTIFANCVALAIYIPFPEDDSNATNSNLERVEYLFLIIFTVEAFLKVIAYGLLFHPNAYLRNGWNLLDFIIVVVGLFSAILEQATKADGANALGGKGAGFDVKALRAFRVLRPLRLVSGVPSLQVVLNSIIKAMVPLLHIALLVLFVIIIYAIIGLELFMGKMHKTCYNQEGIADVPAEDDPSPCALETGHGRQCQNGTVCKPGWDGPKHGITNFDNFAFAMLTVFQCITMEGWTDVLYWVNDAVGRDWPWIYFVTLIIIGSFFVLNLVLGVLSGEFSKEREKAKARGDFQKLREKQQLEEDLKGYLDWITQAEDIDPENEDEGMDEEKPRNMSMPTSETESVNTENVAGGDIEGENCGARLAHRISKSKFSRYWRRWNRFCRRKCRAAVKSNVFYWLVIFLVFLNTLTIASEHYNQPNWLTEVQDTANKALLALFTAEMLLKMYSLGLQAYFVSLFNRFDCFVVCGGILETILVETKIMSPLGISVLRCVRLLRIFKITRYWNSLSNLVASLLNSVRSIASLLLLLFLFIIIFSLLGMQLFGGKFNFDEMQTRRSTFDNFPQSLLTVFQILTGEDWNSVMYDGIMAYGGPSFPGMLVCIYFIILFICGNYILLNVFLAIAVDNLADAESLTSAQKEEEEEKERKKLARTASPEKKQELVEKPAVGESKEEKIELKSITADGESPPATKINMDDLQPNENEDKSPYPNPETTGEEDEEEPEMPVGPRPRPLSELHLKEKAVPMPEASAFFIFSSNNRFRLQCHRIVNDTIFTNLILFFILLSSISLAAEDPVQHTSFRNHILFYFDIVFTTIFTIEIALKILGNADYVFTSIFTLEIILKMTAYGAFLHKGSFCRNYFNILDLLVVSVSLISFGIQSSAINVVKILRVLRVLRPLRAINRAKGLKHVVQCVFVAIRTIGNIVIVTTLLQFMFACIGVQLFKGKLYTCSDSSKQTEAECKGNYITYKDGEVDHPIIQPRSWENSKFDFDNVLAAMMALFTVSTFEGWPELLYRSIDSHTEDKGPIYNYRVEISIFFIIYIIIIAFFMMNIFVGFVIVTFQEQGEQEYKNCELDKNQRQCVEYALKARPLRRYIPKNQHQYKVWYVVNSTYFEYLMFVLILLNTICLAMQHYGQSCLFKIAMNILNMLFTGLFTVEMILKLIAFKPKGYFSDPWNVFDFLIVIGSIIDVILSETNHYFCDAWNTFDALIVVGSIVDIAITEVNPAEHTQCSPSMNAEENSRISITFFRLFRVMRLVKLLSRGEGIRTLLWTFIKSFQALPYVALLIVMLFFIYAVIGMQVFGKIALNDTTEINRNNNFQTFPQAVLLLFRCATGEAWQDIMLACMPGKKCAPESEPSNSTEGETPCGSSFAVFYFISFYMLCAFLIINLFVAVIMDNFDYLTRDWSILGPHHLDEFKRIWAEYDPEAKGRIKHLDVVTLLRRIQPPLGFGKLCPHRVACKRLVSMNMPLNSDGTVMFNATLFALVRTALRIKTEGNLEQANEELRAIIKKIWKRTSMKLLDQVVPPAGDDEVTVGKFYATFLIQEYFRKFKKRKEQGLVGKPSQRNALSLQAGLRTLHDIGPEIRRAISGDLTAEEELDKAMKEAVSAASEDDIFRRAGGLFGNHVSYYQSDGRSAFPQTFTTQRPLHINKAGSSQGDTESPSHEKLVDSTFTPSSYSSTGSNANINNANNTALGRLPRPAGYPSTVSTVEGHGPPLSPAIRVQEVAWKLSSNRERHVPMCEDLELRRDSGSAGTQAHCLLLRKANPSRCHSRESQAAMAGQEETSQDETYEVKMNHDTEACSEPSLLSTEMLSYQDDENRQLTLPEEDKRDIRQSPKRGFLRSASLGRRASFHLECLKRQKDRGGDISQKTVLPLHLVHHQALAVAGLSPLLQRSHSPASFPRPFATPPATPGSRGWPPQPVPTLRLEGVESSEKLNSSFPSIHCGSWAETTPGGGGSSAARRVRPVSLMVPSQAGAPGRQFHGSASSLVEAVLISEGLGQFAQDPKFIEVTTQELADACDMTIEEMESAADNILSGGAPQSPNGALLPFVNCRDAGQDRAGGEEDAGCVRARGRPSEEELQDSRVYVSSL

Sequence	Ca2+ current [1]	co-localization with LTCCs [2]	cardiac (left ventricular) function, echocardiography [3]	protection of Cavα1.2 from protein degradation [4]	slowing (delay) of Ca2+ transient development [5]	downregulation of Cavα1.2 protein levels [6]	LTCC protein levels ([3]; left ventricular homogenates of PDK1 knockout mice)	protective effect on Cavα1.2 when mutations abolish the predicted MP-TID interaction [7]
DQPPSRRDERA [scramble control peptide]	none of these effects were observed	none of these effects were observed	progressive impairment of left ventricular function	none of these effects were observed	no effects	no rescuing effects	–	–
DQRPDREAPRS [MP]	–	–	significant attenuation of the impairment of cardiac function	–	sufficient for reducing this delay	prevented	restoration of LTCC protein levels	completely lost
